# Patent publication US20240182445A1 (ONO PHARMACEUTICAL CO., LTD., priority 2019, published 2024)
# How the values were obtained:
# Format in all cases: cell-based
# human TREK-1 [1] = target: T1, human TREK-1 (Homo sapiens, UniProt O95069); assay: TREK-1 Thallium flux assay, Method 2; conditions: measured by Method 2 of TREK1 Thalium flux assay (footnote *12); read-out: Tl+ Assay IC50
# T1 construct: expressed in transfected cells
# T1 sequence (O95069 1-426): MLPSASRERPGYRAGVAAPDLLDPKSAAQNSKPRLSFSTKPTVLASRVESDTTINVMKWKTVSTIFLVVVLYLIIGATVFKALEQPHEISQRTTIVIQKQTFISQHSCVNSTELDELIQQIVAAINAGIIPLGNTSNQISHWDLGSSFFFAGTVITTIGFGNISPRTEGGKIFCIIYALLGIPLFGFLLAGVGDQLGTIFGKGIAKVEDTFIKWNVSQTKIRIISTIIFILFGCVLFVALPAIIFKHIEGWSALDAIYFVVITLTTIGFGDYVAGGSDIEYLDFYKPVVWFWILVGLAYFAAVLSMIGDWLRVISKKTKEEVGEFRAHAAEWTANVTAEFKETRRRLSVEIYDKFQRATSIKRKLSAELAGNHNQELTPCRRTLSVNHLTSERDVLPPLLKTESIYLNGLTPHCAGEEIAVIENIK
# Procedure: CHO-K1 cells stably expressing human TREK-1 were plated in 384-well plates on the day of assay, loaded with Thallos dye. Test compounds or control compound (tert-butyl (3-((4-(benzyloxy)-2-methylphenyl)carbamoyl)-4-chlorophenyl)carbamate) or 0.3% DMSO (vehicle control) were added directly to the cell plates and incubated for 10 min, and then treated with thallium stimulus buffer to initiate thallium flux. To measure the efficacy and potency of test compounds, the change in fluorescence intensity (ΔRatio) and % inhibition were calculated using the following equations:
# ΔRatio=(fluorescence intensity at 25 seconds after thallium addition)/(average of fluorescent intensity before thallium addition)
# human TREK-1 [2] = target: T1, human TREK-1; assay: TREK-1 Manual Patch Clamp (hMPC) assay; conditions: CHO-K1 cells stably expressing human TREK-1; whole-cell current at 0 mV
# Procedure: The term “patch clamp technique” herein refers to the “gold standard” technique for evaluating TREK channel pharmacology. The detail method is described below.
# CHO-K1 cells stably expressing human TREK-1 or HEK293 cells stably expressing human TREK-2 are plated on glass coverslips, and voltage clamped in the whole-cell configuration of the patch clamp technique. Cells were voltage clamped at a holding potential of −80 mV and the stepped to 0 mV for 500 msec. The voltage was subsequently ramped from −120 mV to +80 mV over a 500 msec duration. This step-ramp protocol was repeated every 10 sec. The bathing solution contained the following: 135 mM NaCl, 5 mM KCl, 2 mM CaCl2, 1 mM MgCl2, 5 mM D-Glucose, 10 mM HEPES, 10 mM sucrose (adjusted to pH 7.4 with NaOH, 300 mosmol/kg H2O). The pipette solution contained the following: 135 mM KCl, 2 mM MgCl2, 1 mM EGTA, 10 mM HEPES, 2 mM Na2ATP (adjusted to pH 7.35 with KOH, 285 mosmol/kg H2O). Test compounds were dissolved into the bathing solution. Experiments on TREK-2 were terminated with the addition of the control compound (tert-butyl (3-((4-(benzyloxy)-2-methylphenyl)carbamoyl)-4-chlorophenyl)carbamate) so that maximal inhibition could be determined. The effects of test compound on the currents were calculated at 0 mV using the following equations:
# For CHO cells expressing TREK-1 channel: % inhibition=(1-post current/pre current)×100
# The compounds shown in Table 2 were prepared in an analogous manner with the appropriate starting materials, and evaluated in our TREK-1 Manual Patch Clamp (hMPC) assay.
# human TREK-1 [3] = target: T1, human TREK-1; assay: TREK-1 Thallium (Tl+) flux assay, Method 1; conditions: TREK-1 Thallium (Tl+) flux assay; values without footnote *12 are Method 1
# Outline: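 Readout: Thallos fluorescence ratio, taken 25 s post-thallium relative to the pre-thallium baseline average, then converted to % inhibition. Cells were CHO-K1 stably expressing human TREK-1, dye-loaded and exposed to test compound (vehicle 0.3% DMSO) for 10 min prior to thallium stimulation.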
IC50 (human TREK-1 [1]),IC50 (human TREK-1 [2]),IC50 (human TREK-1 [3]),SMILES
130 nM,100 nM,,"Cc1cc(C#Cc2ccccc2)cnc1NC(=O)c1c(Cl)cnn1[C@H]1CCN(C(=O)C2CC2)C1 [Compound 454, 4-chloro-1-[(3S)-1-(cyclopropanecarbonyl)pyrrolidin-3-yl]-N-[3-methyl-5-(phenylethynyl)pyridin-2-yl]-1H-pyrazole-5-carboxamide]"
140 nM,,,"Cc1cc(C#Cc2ccccc2)cnc1NC(=O)c1c(Cl)cnn1[C@@H]1CCN(C(=O)C2CC2)C1 [Compound 455, 4-chloro-1-[(3R)-1-(cyclopropanecarbonyl)pyrrolidin-3-yl]-N-[3-methyl-5-(phenylethynyl)pyridin-2-yl]-1H-pyrazole-5-carboxamide]"
,60 nM,70 nM,"CC(=O)N1CCC(n2ncc(Cl)c2C(=O)Nc2ncc(C#Cc3ccccc3)cc2C)CC1 [Compound 5, 1-(1-acetylpiperidin-4-yl)-4-chloro-N-(3-methyl-5-(phenylethynyl)pyridin-2-yl)-1H-pyrazole-5-carboxamide]"

# Continued, compound first:
SMILES,IC50 (human TREK-1 [1]),IC50 (human TREK-1 [2]),IC50 (human TREK-1 [3])
"Cc1cc(C#Cc2ccccc2)cnc1NC(=O)c1c(Cl)cnn1[C@H]1CCn2nccc2C1 (single isomer, unassigned) [Compound 457, 4-chloro-N-[3-methyl-5-(phenylethynyl)pyridin-2-yl]-1-[(5S)-4,5,6,7-tetrahydropyrazolo[1,5-a]pyridin-5-yl]-1H-pyrazole-5-carboxamide or 4-chloro-N-[3-methyl-5-(phenylethynyl)pyridin-2-yl]-1-[(5R)-4,5,6,7-tetrahydropyrazolo[1,5-a]pyridin-5-yl]-1H-pyrazole-5-carboxamide]",37 nM,,
"Cc1cc(C#Cc2ccccc2)cnc1NC(=O)c1c(Cl)cnn1[C@H]1CCn2nccc2C1 (single isomer, unassigned) [Compound 456, 4-chloro-N-[3-methyl-5-(phenylethynyl)pyridin-2-yl]-1-[(5S)-4,5,6,7-tetrahydropyrazolo[1,5-a]pyridin-5-yl]-1H-pyrazole-5-carboxamide or 4-chloro-N-[3-methyl-5-(phenylethynyl)pyridin-2-yl]-1-[(5R)-4,5,6,7-tetrahydropyrazolo[1,5-a]pyridin-5-yl]-1H-pyrazole-5-carboxamide]",120 nM,,
"Cc1cc(C#Cc2ccccc2)cnc1NC(=O)c1c(Cl)cnn1C1CCn2nccc2C1 (centres unmarked) [Compound 9, 4-chloro-N-(3-methyl-5-(phenylethynyl)pyridin-2-yl)-1-(4,5,6,7-tetrahydropyrazolo[1,5-a]pyridin-5-yl)-1H-pyrazole-5-carboxamide]",,20 nM,140 nM
"Cc1cc(C#Cc2ccccc2)cnc1NC(=O)c1c(Cl)cnn1CC1CCOCC1 [Compound 2, 4-chloro-N-(3-methyl-5-(phenylethynyl)pyridin-2-yl)-1-((tetrahydro-2H-pyran-4-yl)methyl)-1H-pyrazole-5-carboxamide]",,60 nM,200 nM
